Results: patent US20240358842A1, “PROTEIN STABILIZING COMPOUNDS CONTAINING USP7 LIGANDS” (Stablix, Inc., priority 2021, published 2024)
Like-named read-outs stand apart in the source and are kept apart here.

Key:
USP7 CD + UBL 1-5 = target: T1, USP7 CD + UBL 1-5 (Homo sapiens, UniProt Q93009); test: Surface plasmon resonance assay (SPR); assay type: binding
T1 construct: USP7 CD +
Procedure: The surface plasmon resonance experiments were performed using a Cytiva (formerly GE Healthcare) Biacore 8K equipped with a Series S Sensor Chip SA. The ligands were immobilized via a biotin-modified biotin acceptor peptide. USP7 Ligands were diluted in running buffer (HBS-P+2% DMSO; 10 mM HEPES, pH 7.4, 150 mM NaCl, 1 mM DTT, 0.05% P20, 2% DMSO) to 100 μg/mL and injected at […] until a density between 500-10,000 RU was reached on flow-cell two of each channel, and flow cell one was left blank to serve as a reference surface. Both surfaces were washed until a stable baseline was achieved then 30 startup cycles to condition the surface. To collect kinetic and steady-state binding data, the small molecule analytes were prepared in three-fold dilution series in HBS-P+2% DMSO running buffer. Analytes were injected over both flow cells at a flow rate of […] at 25° C. The complex was allowed to associate for 60 seconds and dissociate for 300 seconds. Data were collected at 10 Hz. The data were fit to a simple 1:1 interaction model global data analysis within Cytiva Biacore Insight Evaluation Software.

USP7 = USP7 (Homo sapiens, UniProt Q93009); test: Ub-Rho cleavage assay; assay type: biochemical
USP7, sequence (Q93009 whole entry): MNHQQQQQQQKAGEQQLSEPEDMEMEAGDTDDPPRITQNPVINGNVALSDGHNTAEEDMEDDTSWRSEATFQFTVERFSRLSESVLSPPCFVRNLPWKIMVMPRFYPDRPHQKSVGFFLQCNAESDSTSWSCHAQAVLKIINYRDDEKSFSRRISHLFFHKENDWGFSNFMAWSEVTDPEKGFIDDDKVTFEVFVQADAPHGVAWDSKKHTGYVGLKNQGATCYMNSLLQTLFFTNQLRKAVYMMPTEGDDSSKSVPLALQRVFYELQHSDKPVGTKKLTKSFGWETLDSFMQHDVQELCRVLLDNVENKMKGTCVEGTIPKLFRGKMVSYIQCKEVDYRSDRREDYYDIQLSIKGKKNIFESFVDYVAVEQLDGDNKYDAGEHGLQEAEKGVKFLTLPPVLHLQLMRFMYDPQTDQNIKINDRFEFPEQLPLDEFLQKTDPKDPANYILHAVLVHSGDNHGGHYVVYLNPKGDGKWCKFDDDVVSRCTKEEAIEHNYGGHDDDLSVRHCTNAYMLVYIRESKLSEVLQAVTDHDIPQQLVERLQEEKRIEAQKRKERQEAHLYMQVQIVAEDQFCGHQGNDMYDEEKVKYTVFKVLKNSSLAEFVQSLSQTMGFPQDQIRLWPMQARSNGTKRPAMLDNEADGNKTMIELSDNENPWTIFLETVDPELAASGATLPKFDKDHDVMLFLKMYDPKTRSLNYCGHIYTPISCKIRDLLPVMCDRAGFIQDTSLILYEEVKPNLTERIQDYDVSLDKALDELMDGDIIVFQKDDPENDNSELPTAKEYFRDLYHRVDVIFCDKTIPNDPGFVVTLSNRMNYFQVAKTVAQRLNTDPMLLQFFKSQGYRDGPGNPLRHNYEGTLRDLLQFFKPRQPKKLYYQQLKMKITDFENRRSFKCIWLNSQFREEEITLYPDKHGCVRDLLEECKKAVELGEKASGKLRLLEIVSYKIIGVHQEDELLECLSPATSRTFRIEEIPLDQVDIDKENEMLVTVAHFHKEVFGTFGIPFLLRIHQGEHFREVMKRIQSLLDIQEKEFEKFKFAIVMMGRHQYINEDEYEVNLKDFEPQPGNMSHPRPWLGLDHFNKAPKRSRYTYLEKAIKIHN
Procedure: All fluorescence measurements were performed on a Molecular Devices FlexStation3 with excitation at 480 nm and emission 540 nm, PMT Gain: Medium, Flash Number: 10. […] Assay buffer for all measurements was 50 mM HEPES, 100 mM NaCl, 0.5 mM EDTA, 1 mM TCEP, 0.1 mg/ml BSA, 0.01% Tween-20, pH 7.8. […] Serial dilutions were made with a Mosquito HTS (SPT Labtech) nanoliter liquid handler. 200 nL of each compound in duplicate or DMSO control were transferred to the assay plate. The first two columns served as positive controls. 9.8 μl per well of USP7 working solution was added to the assay plate. Compound+Protein was incubated for 25 min at 25° C. 10 uL of Ub-Rho substrate was added per well and incubated for an additional 15 min at 25° C. Fluorescence was then measured. Percent response relative to DMSO controls was calculated in GraphPad or Scinamic, and the data was fitted to a non-linear regression to determine IC50 values.

[1] = steady-state KD, read-out: SPR USP7 CD + UBL 1-5 (KD_ss)
[2] = Ub-Rho substrate, recombinant USP7, read-out: Ub (Rho) USP7.1 (IC50)

T1 sequence (Q93009 208-1102 limits assumed): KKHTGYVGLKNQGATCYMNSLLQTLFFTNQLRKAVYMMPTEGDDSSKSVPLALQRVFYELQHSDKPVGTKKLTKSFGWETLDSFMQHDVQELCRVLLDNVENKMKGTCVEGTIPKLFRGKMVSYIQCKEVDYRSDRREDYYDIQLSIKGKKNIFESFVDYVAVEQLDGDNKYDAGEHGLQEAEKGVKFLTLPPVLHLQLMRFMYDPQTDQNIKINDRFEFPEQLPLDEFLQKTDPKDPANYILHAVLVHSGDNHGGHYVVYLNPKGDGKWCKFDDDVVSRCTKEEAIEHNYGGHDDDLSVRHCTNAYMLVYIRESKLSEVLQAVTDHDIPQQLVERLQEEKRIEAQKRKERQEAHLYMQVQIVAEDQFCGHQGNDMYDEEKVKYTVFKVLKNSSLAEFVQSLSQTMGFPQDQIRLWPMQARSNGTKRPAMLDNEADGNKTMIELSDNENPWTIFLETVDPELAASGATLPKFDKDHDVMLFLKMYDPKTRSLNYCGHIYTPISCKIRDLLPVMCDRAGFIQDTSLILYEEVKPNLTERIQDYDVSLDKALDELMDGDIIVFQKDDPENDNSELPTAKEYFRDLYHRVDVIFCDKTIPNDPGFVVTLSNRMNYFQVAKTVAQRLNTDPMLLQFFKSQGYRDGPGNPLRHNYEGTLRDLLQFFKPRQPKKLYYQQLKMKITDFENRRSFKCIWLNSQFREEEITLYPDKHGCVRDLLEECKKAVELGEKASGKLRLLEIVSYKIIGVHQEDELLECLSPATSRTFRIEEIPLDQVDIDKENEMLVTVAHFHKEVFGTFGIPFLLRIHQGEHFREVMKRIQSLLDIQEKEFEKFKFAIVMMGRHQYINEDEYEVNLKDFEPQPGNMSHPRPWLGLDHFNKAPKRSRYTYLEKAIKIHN

Row | Compound | Kd (USP7 CD + UBL 1-5; [1]) | IC50 (USP7; [2]) | Kd (USP7 CD + UBL 1-5; SPR USP7 CD + UBL 1-5 (KD_ss) [nM], steady-state KD) | IC50 (USP7) | Kd (USP7 CD + UBL 1-5; kinetic KD, read-out: SPR USP7 CD + UBL 1-5 (KD_kinetic))
1 | O=C(CCc1ccccc1)N1CCC(O)(Cn2cnc3cc(Cl)ccc3c2=O)CC1 [U26] | 1000 to 100000 nM | – | – | – | –
2 | CCc1c(-c2ccc(C(=O)NCCCNC(=O)CCCCCCCNC(=O)OC(C)(C)C)nc2)cnc(N)c1-c1ccc(O)cc1 [U52] | 1000 to 100000 nM | > 100 µM | – | – | –
3 | CS(=O)(=O)c1nccc(Nc2nc3ccc(NS(=O)(=O)c4cccs4)cc3s2)n1 [U80] | 1000 to 100000 nM | > 100 µM | – | – | –
4 | CCc1c(-c2ccc(C(=O)NCCCNC(=O)CCOCCOCCNC(=O)OC(C)(C)C)nc2)cnc(N)c1-c1ccc(O)cc1 [U56] | 1000 to 100000 nM | 1 to 100 µM | – | – | –
5 | CN1CCC(C(=O)Nc2nc3ccc(NS(=O)(=O)c4cnc(Cl)s4)cc3s2)CC1 [U95] | > 100000 nM | > 100 µM | – | – | –
6 | O=C(Nc1nc2ccc(NS(=O)(=O)c3cccs3)cc2s1)c1cc2n(n1)CCCN(C1CC1)C2 [U98] | 1000 to 100000 nM | 1 to 100 µM | – | – | –
7 | CCc1c(-c2ccc(C(=O)NC)nc2)ccc(NCCN=[N+]=[N-])c1-c1ccc(O)cc1 [U70] | 1000 to 100000 nM | 1 to 100 µM | – | – | –
8 | CN1CCC(C(=O)Nc2nc3ccc(NS(=O)(=O)c4cn5c(n4)CCC5)cc3s2)CC1 [U91] | 1000 to 100000 nM | > 100 µM | – | – | –
9 | CN1CCCn2nc(C(=O)Nc3nc4ccc(NS(=O)(=O)c5cccs5)cc4s3)nc2C1 [U124] | > 100000 nM | 1 to 100 µM | – | – | –
10 | O=C(C[C@@H](C(F)F)n1ccc(F)n1)N1CCC(O)(Cn2cnc3c(cnn3-c3ccc(F)cc3)c2=O)CC1 [U25] | – | – | < 1000 nM | < 1 µM | –
11 | Cc1cc(Cl)cc(-c2ccnc3cc(CN4C(=O)CCC4=O)sc23)c1OC1CCN(CCCNC(=O)CCCCCCCNC(=O)OC(C)(C)C)CC1 [U41] | < 1000 nM | < 1 µM | – | – | –
12 | CN1CCCn2nc(C(=O)Nc3nc4ccc(N(CCN)S(=O)(=O)c5cccs5)cc4s3)cc2C1 [U108] | > 100000 nM | > 100 µM | – | – | –
13 | CN1CCC(C(=O)Nc2nc3cc(NS(=O)(=O)c4cccs4)ccc3s2)CC1 [U88] | > 100000 nM | > 100 µM | – | – | –
14 | CN1CCC(C(=O)Nc2nc3ccc(NS(=O)(=O)c4cnccn4)cc3s2)CC1 [U93] | 1000 to 100000 nM | > 100 µM | – | – | –
15 | CN1CCC(C(=O)Nc2nc3ccc(NS(=O)(=O)CC4CC4)cc3s2)CC1 [U74] | 1000 to 100000 nM | > 100 µM | – | – | –
16 | CCc1c(-c2ccc(O)cc2)cnc(C=O)c1-c1ccc(O)cc1 [U64] | 1000 to 100000 nM | 1 to 100 µM | – | – | –
17 | CCc1c(-c2ccc(O)cc2)cnc(NCCN=[N+]=[N-])c1-c1ccc(C(=O)NC)nc1 [U71] | < 1000 nM | 1 to 100 µM | – | – | –
18 | CN1CCCn2nc(C(=O)Nc3nc4ccc(N[S+]([O-])c5cccs5)cc4s3)cc2C1 (stereo not shown) [U113] | 1000 to 100000 nM | > 100 µM | – | – | –
19 | CN1CC2CN(C(=O)Nc3nc4ccc(NS(=O)(=O)c5cccs5)cc4s3)CC2C1 (stereo not shown) [U117] | 1000 to 100000 nM | > 100 µM | – | – | –
20 | NCc1ccc(Nc2nc3ccc(NS(=O)(=O)c4cccs4)cc3s2)nc1 [U87] | 1000 to 100000 nM | > 100 µM | – | – | –
21 | CCc1c(-c2ccc3[nH]ncc3c2)cnc(C=O)c1-c1ccc(O)cc1 [U65] | 1000 to 100000 nM | 1 to 100 µM | – | – | –
22 | C[C@H](CC(=O)N1CCC(O)(Cn2cnc3c(-c4ccc(CNC(=O)CCNC(=O)OC(C)(C)C)cc4)n(C)nc3c2=O)CC1)c1ccccc1 [U134] | – | < 1 µM | – | – | < 1000 nM
23 | O=C(Nc1nc2ccc(NS(=O)(=O)c3cccs3)cc2s1)C1CCNCC1 [U67] | 1000 to 100000 nM | > 100 µM | – | – | –
24 | CN1CCN(C(=O)Nc2nc3ccc(NS(=O)(=O)c4cccs4)cc3s2)CC1=O [U123] | > 100000 nM | > 100 µM | – | – | –
25 | CN1CCCn2nc(C(=O)Nc3nc4ccc(NCc5c[nH]cn5)cc4s3)cc2C1 [U114] | > 100000 nM | > 100 µM | – | – | –
26 | NCc1cc(Nc2nc3ccc(NS(=O)(=O)c4cccs4)cc3s2)ncn1 [U83] | 1000 to 100000 nM | > 100 µM | – | – | –
27 | CN1CCCn2nc(C(=O)Nc3nc4ccc(N(CC5CCNC5)S(=O)(=O)c5cccs5)cc4s3)cc2C1 (stereo not shown) [U115] | 1000 to 100000 nM | > 100 µM | – | – | –
28 | CCC(=O)N1CCC(C(=O)Nc2nc3ccc(NS(=O)(=O)c4cccs4)cc3s2)C1 (stereo not shown) [U122] | 1000 to 100000 nM | > 100 µM | – | – | –
